From article PMC6650905, “Development of a Novel Series of Anticancer and Antidiabetic: Spirothiazolidines Analogs” (Molecules, 2019)

Key:
[1] = target: T1, alpha-glucosidase (Saccharomyces cerevisiae); experiment: p-nitrophenol release, absorbance […] nm; assay type: biochemical; settings: p-nitrophenyl alpha-D-glucopyranoside 5 mM stock (20 μL), 100 mM phosphate pH 6.8, 37 °C, 15 min preincubation
T1 construct: gene MAL12; commercial preparation from Sigma-Aldrich

[2] = target: T2, alpha-amylase (α–amylase); experiment: DNS colorimetric assay; assay type: biochemical; settings: starch 0.5%, 20 mM phosphate pH 6.9, 25 °C, 10 min preincubation
T2 construct: commercial preparation from Sigma-Aldrich

Row | SMILES | ** IC50 [1] [µg/mL] | ** IC50 [2] [µg/mL]
1 | Nc1ccc(N2C(=O)CSC23CCCCC3)cc1 [compound 1, 4-(4-aminophenyl)-1-thia-4-azaspiro[4.5]decan-3-one] | 120.22 | 297.8
2 | NN=C1CSC2(CCCCC2)N1c1ccc(N)cc1 [compound 2, 4-(3-hydrazono-1-thia-4-azaspiro[4.5]decan-4-yl)aniline] | 363.67 | 421.42
3 | N#Cc1c(N)nc2c(c1-c1ccc(Cl)cc1)SC1(CCCCC1)N2c1ccc(N)cc1 [compound 6, 5′-amino-3′-(4-aminophenyl)-7′-(4-chlorophenyl)-3′H-spiro[cyclohexane-1,2′-thiazolo[4,5-b]pyridine]-6′-carbonitrile] | 63.6 | 94.9
4 | N#Cc1c(-c2ccc(Cl)cc2)c2c([nH]c1=O)N(c1ccc(N)cc1)C1(CCCCC1)S2 [compound 7, 3′-(4-aminophenyl)-7′-(4-chlorophenyl)-5′-oxo-4′,5′-dihydro-3′H-spiro[cyclohexane-1,2′-thiazolo[4,5-b]pyridine]-6′-carbonitrile] | 117.36 | 239.37
5 | Nc1ccc(N2C(=O)C(=Cc3ccc(Cl)cc3)SC23CCCCC3)cc1 [compound 8, 4-(4-aminophenyl)-2-(4-chlorobenzylidene)-1-thia-4-azaspiro[4.5]decan-3-one] | 114.45 | 199.01
6 | Nc1ccc(N2c3[nH]nc(-c4ccc(Cl)cc4)c3SC23CCCCC3)cc1 [compound 9, 4-(3′-(4-chlorophenyl)-spiro[cyclohexane-1,5′-pyrazolo[3,4-d]thiazol]-6′ (1′H)-yl)aniline] | 52.47 | 58.85
7 | N#Cc1c(-c2ccc(Cl)cc2)c2c(n(CCO)c1=O)N(c1ccc(N)cc1)C1(CCCCC1)S2 [compound 13, 3′-(4-aminophenyl)-7′-(4-chlorophenyl)-4′-(2-hydroxyethyl)-5′-oxo-4′,5′-dihydro-3′H-spiro[cyclohexane-1,2′-thiazolo[4,5-b]pyridine]-6′-carbonitrile] | 118.11 | 271.3
8 | CCOC(=O)Cn1c2c(c(-c3ccc(Cl)cc3)c(C#N)c1=O)SC1(CCCCC1)N2c1ccc(N)cc1 [compound 16, Ethyl 2-(3′-(4-aminophenyl)-7′-(4-chlorophenyl)-6′-cyano-5′-oxo-3′,5′-dihydro-4′H-spiro [cyclohexane-1,2′-thiazolo[4,5-b]pyridin]-4′-yl)acetate] | 570.4 | > 1000
